Reference: patent publication US11317632B2, “Materials amd methods for buffering active chlorine solutions” (Pharmocon LLC, priority 2017, dated 2022)
Read-outs that look alike come from different tables or passages of the source.

What was measured:
[1] = Titration curves of buffers with standardized 0.1 N NaOH or HCl, pH meter; type: physicochemical; settings: for buffering range in the presence of magnesium: magnesium added; for pKa: distilled water
Procedure: Aqueous solutions containing chlorine and/or hypochlorous acid are referred to herein as free active chlorine or “FAC” solutions, regardless of their method of preparation and without regard to other species that may be present. Concentrations of HOCl are reported herein as ppm active chlorine, as determined by colorimetry using N,N-diethyl-p-phenylenediamine (DPD) as indicator. Samples were diluted 999:1 with distilled water prior to addition of a DPD-1 tablet (Pollardwater, New Hyde Park, N.Y.) to a 10-ml sample, and the value for ppm chlorine was determined with a colorimeter (MW-10, Milwaukee Instruments, Rocky Mount, N.C.) Chloride concentrations were determined by agentometric (Mohr) titration. Titration curves were determined by dissolving 40 mg of buffer in 20 ml distilled water and adding standardized 0.1 N NaOH or HCl, with pH measured with a digital pH meter calibrated daily at pH 4.0. New and known buffers were synthesized by the cited literature methods, varying the starting materials as required.

[2] = cited from earlier work
[3] = forward titration with NaOH, no additive

SMILES: O=P(O)(O)c1cccc(P(=O)(O)O)n1 [pyridine-2,6-diphosphonic acid]
- buffering range in the presence of magnesium [1]: 2-3 pH
- buffering, titration with NaOH from pH 2 to 11 ([1]; no additive): only modest buffering

SMILES: O=P(O)(O)c1ccc(P(=O)(O)O)c(P(=O)(O)O)c1 [benzene-1,2,4-triphosphonic acid]
- buffering at pH 4-6 ([1]; pure triacid, no additive): completely absent
- buffering at pH 4-6 ([1]; zinc nitrate added, back titration with HCl): present

SMILES: O=P(O)(O)C(F)(F)C(F)(F)F [pentafluoroethylphosphonic acid]
- buffering from the first pKa ([1]; no additive): 2.5-3.5 pH
- buffering from the second pKa ([1]; no additive): 4-5 pH

SMILES: O=P(O)(O)O [phosphate, phosphoric acid, reference compound]
- buffering capacity in the pH range 3-6 ([1]; no additive): no buffering capacity
- buffering capacity, lower range ([1]; no additive): 2-3 pH
- buffering capacity, upper range ([1]; no additive): 7-8 pH

SMILES: O=P(O)(O)c1ccccc1P(=O)(O)O [benzene-1,2-diphosphonic acid]
- third pKa value ([1]; added strontium nitrate, compared to no additive): relatively unchanged
- pKa ([1]; added strontium nitrate, read-out: first two pKa values): 3 to 4
- pKa ([1]; added strontium nitrate, read-out: fourth pKa value): 9.5 to 10.5
- pKa ([1]; magnesium sulfate present, read-out: fourth pKa): < 8
- pKa ([1]; one equivalent of boric acid, read-out: third and fourth pKa values): 7 to 9
- buffering from the fourth pKa / fourth pKa value ([1]; no additive): cannot be observed
- extended buffering ([1]; one equivalent of boric acid, overlap with boric acid buffering): 8-9 pH

SMILES: O=P(O)(O)c1cccc(S(=O)(=O)O)c1 [3-phosphonobenzenesulfonic acid]
- buffering from first phosphonate proton ([1]; no additive): 1.5-2 pH
- moderate buffering from second phosphonate proton ([1]; no additive): 6.5-7.5 pH

SMILES: O=P(O)(O)c1cccc(P(=O)(O)O)c1 [benzene-1,3-diphosphonic acid]
- pKa values observed ([1]; no additive): typical benzenephosphonic acid pKa values

SMILES: O=P(O)(O)c1ccccc1 [Phenyphosphonic acid]
- second pKa [2]: over 7

SMILES: O=P(O)(O)C(Cl)(Cl)P(=O)(O)O [clodronic acid, dichloromethanediphosphonic acid, reference compound]
- pKa ([1]; zinc nitrate (2 equivalents) added prior to titration, read-out: third and fourth pKa values): 3.5 to 4.5
- buffering range in the presence of magnesium [1]: 5-8 pH
- buffering from the first two pKas / first two protons ([1]; no additive): 2-3 pH
- buffering from the fourth pKa / fourth pKa value ([1]; no additive): 9-10 pH
- buffering from the third pKa / third proton ([1]; no additive): 6-7 pH

SMILES: O=P(O)(O)c1cccc(P(=O)(O)O)c1P(=O)(O)O [benzene-1,2,3-triphosphonic acid]
- missing proton ([1]; after addition of calcium nitrate, back titration with HCl): present ant titratable
- pH at which three protons are titrated [1, 3]: 2-4 pH
- pH at which two protons are titrated [1, 3]: 7-11 pH
